Test results from patent publication US8507499B2, “Substituted indole/indazole-pyrimidinyl compounds” (Confluence Life Sciences, Inc., priority 2010, dated 2013).
“And” between values parts separate entries of the source, which are not always exact repeats. Equal entries are not always repeated.

Target: p38/MK2 (Homo sapiens, UniProt Q16539)
Test: p38α/MK2 cascade assay (phosphorylation of Hsp27 peptide, Caliper LabChip 3000)
Format: biochemical
Settings: Hsp27 peptide 1 μM, MgATP 10 μM, two values printed in one cell
Description: The novel, MK2 substrate-selective inhibitory mechanism of compounds is evaluated in enzyme assays comparing inhibitor potency in blocking p38/MK2 versus p38/PRAK induced phosphorylation of an HSP-27 derived peptide substrate. The ability of compounds to inhibit activated phospho-p38α is evaluated using a p38α/MK2 and a p38α/PRAK cascade assay format. The kinase activity of p38α is determined by its ability to phosphorylate GST-MK2 or GST-PRAK. Activation of MK2 or PRAK by p38α is quantitated by measuring the phosphorylation of a fluorescently-labeled, MK2 specific peptide substrate, Hsp27 peptide (FITC-KKKALSRQLSVAA). The phosphorylation of the Hsp27 peptide is quantified using the Caliper LabChip 3000. Kinase reactions are carried out in a 384-well plate (Matrical, MP101-1-PP) in 20 mM HEPES pH 7.5, 10 mM MgCl2, 0.0005% Tween-20, 0.01% BSA, 1 mM DTT, and 2% DMSO. […] The p38α compound inhibitory potency is quantitated from dose-response IC50 values or Ki values from p38α/MK2 cascade assays while the substrate selectivity is calculated as a ratio of p38α/PRAK:p38α/MK2 IC50 values. Species compounds of Formula I, described hereinabove, evaluated in this assay, are expected to provide a therapeutic benefit in the treatment of p38 kinase mediated diseases, such as autoimmune diseases and lymphoma.

p38/MK2, sequence (Q16539 whole entry): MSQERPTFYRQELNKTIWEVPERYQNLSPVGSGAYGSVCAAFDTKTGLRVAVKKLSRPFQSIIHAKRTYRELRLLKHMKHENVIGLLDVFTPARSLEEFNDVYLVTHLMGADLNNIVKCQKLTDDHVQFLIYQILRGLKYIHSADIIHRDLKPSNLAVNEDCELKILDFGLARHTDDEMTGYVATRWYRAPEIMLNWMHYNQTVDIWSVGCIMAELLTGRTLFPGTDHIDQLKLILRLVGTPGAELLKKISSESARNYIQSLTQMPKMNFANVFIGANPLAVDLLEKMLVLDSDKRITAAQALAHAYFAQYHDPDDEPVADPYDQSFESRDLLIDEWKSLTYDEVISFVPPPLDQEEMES

IC50: 2.89 µM and 3.86 µM
SMILES: CC(C)(C)c1nccc(-c2c[nH]c3cc(Cl)c(C(=O)N4CCC(Cc5ccc(F)cc5)CC4)cc23)n1 [Example 57, (3-(2-tert-Butyl-pyrimidin-4-yl)-6-chloro-1H-indol-5-yl)-(4-(4-fluorobenzyl)-piperidin-1-yl)-methanone]
